Patent publication US8741944B2, “Anti-infective agents against intracellular pathogens” (priority 2007, dated 2014)
Where two headings read alike, the source gives them in different places.

How the values were obtained:
COX-2 = COX-2 (Homo sapiens (Human), UniProt P35354); assay: COX-2 inhibitory activity; format: biochemical; conditions: concentrations up to 50 μM
Akt = assay: Direct inhibition of immunoprecipitated Akt kinase activity; format: biochemical, human
[1] = system: NCI-H226 (Non-Small Cell Lung Cancer)
Experimental: For a typical screening experiment, cells are inoculated into 96 well microtiter plates in 100 μL at plating densities ranging from 5,000 to 40,000 cells/well depending on the doubling time of individual cell lines. After cell inoculation, the microtiter plates are incubated at 37° C., 5% CO2, 95% air and 100% relative humidity for 24 h prior to addition of experimental drugs.
After 24 h, two plates of each cell line are fixed in situ with TCA, to represent a measurement of the cell population for each cell line at the time of drug addition (Tz). Experimental drugs are solubilized in dimethyl sulfoxide at 400-fold the desired final maximum test concentration and stored frozen prior to use. At the time of drug addition, an aliquot of frozen concentrate is thawed and diluted to twice the desired final maximum test concentration with complete medium containing 50 μg/ml gentamicin. Additional four, 10-fold or ½ log serial dilutions are made to provide a total of five drug concentrations plus control. Aliquots of 100 μl of these different drug dilutions are added to the appropriate microtiter wells already containing 100 μl of medium, resulting in the required final drug concentrations.
Following drug addition, the plates are incubated for an additional 48 h at 37° C., 5% CO2, 95% air, and 100% relative humidity. For adherent cells, the assay is terminated by the addition of cold TCA. Cells are fixed in situ by the gentle addition of 50 μl of cold 50% (w/v) TCA (final concentration, 10% TCA) and incubated for 60 minutes at 4° C. The supernatant is discarded, and the plates are washed five times with tap water and air dried. Sulforhodamine B (SRB) solution (1001) at 0.4% (w/v) in 1% acetic acid is added to each well, and plates are incubated for 10 minutes at room temperature. After staining, unbound dye is removed by washing five times with 1% acetic acid and the plates are air dried. Bound stain is subsequently solubilized with 10 mM trizma base, and the absorbance is read on an automated plate reader at a wavelength of 515 nm. For suspension cells, the methodology is the same except that the assay is terminated by fixing settled cells at the bottom of the wells by gently adding 50 μl of 80% TCA (final concentration, 16% TCA). Using the seven absorbance measurements [time zero, (Tz), control growth, (C), and test growth in the presence of drug at the five concentration levels (Ti)], the percentage growth is calculated at each of the drug concentrations levels. Percentage growth inhibition is calculated as: [(Ti−Tz)/(C−Tz)]×100 for concentrations for which Ti>/=Tz [(Ti−Tz)/Tz]×100 for concentrations for which Ti<Tz
Three dose response parameters are calculated for each experimental agent. […] The drug concentration resulting in total growth inhibition (TGI) is calculated from Ti=Tz. […] Values are calculated for each of these three parameters if the level of activity is reached; however, if the effect is not reached or is exceeded, the value for that parameter is expressed as greater or less than the maximum or minimum concentration tested.

COX-2, sequence (P35354 whole entry, looked up): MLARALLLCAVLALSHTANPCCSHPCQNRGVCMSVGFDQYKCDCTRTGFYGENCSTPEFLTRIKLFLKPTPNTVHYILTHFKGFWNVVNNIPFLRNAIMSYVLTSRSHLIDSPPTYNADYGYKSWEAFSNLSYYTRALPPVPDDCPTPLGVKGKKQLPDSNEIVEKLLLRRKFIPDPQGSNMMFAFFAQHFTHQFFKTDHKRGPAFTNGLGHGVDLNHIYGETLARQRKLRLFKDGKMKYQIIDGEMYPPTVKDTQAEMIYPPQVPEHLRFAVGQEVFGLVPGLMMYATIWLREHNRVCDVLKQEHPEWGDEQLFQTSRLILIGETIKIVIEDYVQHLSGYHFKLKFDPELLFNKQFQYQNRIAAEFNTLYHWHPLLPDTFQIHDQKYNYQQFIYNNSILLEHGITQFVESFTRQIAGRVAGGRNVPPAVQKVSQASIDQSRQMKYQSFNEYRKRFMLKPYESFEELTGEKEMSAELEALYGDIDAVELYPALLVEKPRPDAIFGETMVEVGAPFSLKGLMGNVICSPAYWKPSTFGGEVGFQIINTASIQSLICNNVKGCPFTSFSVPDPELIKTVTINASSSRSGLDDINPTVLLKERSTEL

Compound | COX-2 inhibitory activity (COX-2) | direct inhibitory effect on immunoprecipitated Akt kinase activity (Akt) | TGI [1] | Mean Optical Densities ([1]; Log10 Concentration −4.0) | Mean Optical Densities ([1]; Log10 Concentration −5.0) | Percent Growth ([1]; Log10 Concentration −5.0) | Mean Optical Densities ([1]; Log10 Concentration −6.0) | Percent Growth ([1]; Log10 Concentration −6.0) | Mean Optical Densities ([1]; Log10 Concentration −7.0) | Percent Growth ([1]; Log10 Concentration −7.0) | Mean Optical Densities ([1]; Log10 Concentration −8.0) | Percent Growth ([1]; Log10 Concentration −8.0)
4-[5-(2-Phenanthrenyl)-3-(trifluoromethyl)-1H-pyrazol-1-yl]-phenyl -guanidine [Compound 71] | nor was any measurable COX-2 inhibitory activity detected | no appreciable direct inhibition | – | – | – | – | – | – | – | – | – | –
NCC(=O)Nc1ccc(-n2nc(C(F)(F)F)cc2-c2ccc3c(ccc4ccccc43)c2)cc1 [Compound 70, 2-Amino-N-{4-[5-(2-phenanthrenyl)-3-(trifluoromethyl)-1H-pyrazol-1-yl]-phenyl}-acetamide] | – | – | 3.21E−06 | 0.614 | 0.505 | −58% | 1.429 | 59% | 1.586 | 98% | 1.593 | 100%
